ChEMBL document CHEMBL1148617, “Design, synthesis, and structure-activity relationships of 1-,3-,8-, and 9-substituted-9-deazaxanthines at the human A2B adenosine receptor” (J Med Chem, 2006)
Values belong to the compound of their own block, whether it stands above or below them.

Columns and labels:
[1] = biological target: T1, Adenosine receptor A2a (Homo sapiens, UniProt P29274); assay: Displacement of [3H]ZM-241385 from recombinant human adenosine A2A receptor expressed in HeLa cells at 0.1 uM
T1 sequence (P29274 whole entry): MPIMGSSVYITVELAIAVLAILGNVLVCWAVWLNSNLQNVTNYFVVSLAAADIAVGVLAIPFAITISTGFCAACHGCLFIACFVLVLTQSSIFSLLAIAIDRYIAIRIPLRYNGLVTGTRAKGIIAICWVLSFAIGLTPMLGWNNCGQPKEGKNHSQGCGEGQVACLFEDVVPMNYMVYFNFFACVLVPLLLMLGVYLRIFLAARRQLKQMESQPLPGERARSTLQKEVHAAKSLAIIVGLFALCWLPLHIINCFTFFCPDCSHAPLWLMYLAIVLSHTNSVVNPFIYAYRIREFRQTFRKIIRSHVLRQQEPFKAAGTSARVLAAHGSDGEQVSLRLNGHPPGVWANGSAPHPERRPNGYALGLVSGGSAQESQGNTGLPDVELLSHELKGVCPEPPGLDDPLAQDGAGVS

[2] = biological target: T2, Adenosine receptor A2b (Homo sapiens) (UniProt P29275); assay: Displacement of [3H]DPCPX from recombinant human adenosine A2B receptor expressed in HEK293 cells at 0.1 uM; type: cell-based
T2 sequence (whole entry): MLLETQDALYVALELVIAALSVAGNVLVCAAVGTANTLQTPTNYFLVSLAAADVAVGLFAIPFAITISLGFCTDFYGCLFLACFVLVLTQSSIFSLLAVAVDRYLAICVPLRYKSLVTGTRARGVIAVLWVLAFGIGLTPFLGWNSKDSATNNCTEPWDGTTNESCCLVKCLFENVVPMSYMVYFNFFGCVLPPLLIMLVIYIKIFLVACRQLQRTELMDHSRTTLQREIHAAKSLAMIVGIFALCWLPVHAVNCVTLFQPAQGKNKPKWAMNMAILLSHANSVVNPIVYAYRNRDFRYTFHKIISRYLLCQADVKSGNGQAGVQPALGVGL

[3] = biological target: T1, Adenosine receptor A2a
Description: Binding affinity to recombinant human adenosine A2A receptor

[4] = biological target: T2, Adenosine receptor A2b (Homo sapiens); assay: Displacement of [3H]DPCPX from recombinant human adenosine A2B receptor expressed in HEK293 cells at 0.01 uM
[5] = biological target: T3, Adenosine receptor A2b (Homo sapiens, UniProt P29275)
T3 sequence (P29275 whole entry): T2 sequence (whole entry)
Description: Binding affinity to recombinant human adenosine A2B receptor

SMILES: CCCn1c(=O)c2[nH]c(-c3ccc(OCC(=O)Nc4ccc(-c5ccccc5)cc4)cc3)cc2n(CCC)c1=O
inhibition [1]: 36%
inhibition [2]: 80%
Ki [3]: 69.2 nM
inhibition [4]: 40%
Ki [5]: 16.2 nM

SMILES: CCCn1c(=O)c2[nH]c(-c3ccc(OCC(=O)Nc4ccc(C(=O)NCCc5ccc(OC)cc5)cc4)cc3)cc2n(CCC)c1=O
inhibition [1]: 13%
inhibition [2]: 74%
Ki [3]: 427 nM
inhibition [4]: 21%
Ki [5]: 12.3 nM

SMILES: CCn1c(=O)c2[nH]c(-c3ccc(OCC(=O)O)cc3)cc2n(CCCOC)c1=O
inhibition [1]: 20%
inhibition [2]: 66%
Ki [3]: 933 nM
Ki [5]: 72.4 nM

SMILES: CCCn1c(=O)c2nc(-c3cc(OCC(=O)c4ccc(F)cc4)nn3C)[nH]c2n(CCC)c1=O
Ki [3]: 12.6 nM
Ki [5]: > 1000 nM

SMILES: CCCn1c(=O)c2nc(-c3ccc(OCC(=O)c4ccc(I)cc4)cn3)[nH]c2n(CCC)c1=O
Ki [3]: 11 nM
Ki [5]: > 1000 nM

SMILES: CCCn1c(=O)c2[nH]c(-c3ccc(OCC(=O)O)cc3)cc2n(C)c1=O
inhibition [1]: 21%
inhibition [2]: 63%
Ki [3]: 4070 nM
Ki [5]: 43.7 nM

SMILES: Cn1c(=O)c2[nH]c(-c3ccc(OCC(=O)O)cc3)cc2n(C)c1=O
inhibition [1]: 14%
inhibition [2]: 47%
Ki [3]: 4170 nM
Ki [5]: 123 nM

SMILES: CCCn1c(=O)c2[nH]c(-c3ccc(OCC(=O)Nc4ccc(I)cc4)cc3)cc2n(C)c1=O
inhibition [1]: 24%
inhibition [2]: 97%
inhibition [4]: 51%
Ki [5]: 5.89 nM

SMILES: CCCn1c(=O)c2[nH]c(-c3ccc(OCC(=O)Nc4ccc(Cl)cc4)cc3)nc2n(CCC)c1=O
Ki [3]: 191 nM
Ki [5]: 7.94 nM

SMILES: CCCn1c(=O)c2[nH]c(-c3ccc(OCC(=O)c4ccc(I)cc4)nn3)nc2n(CCC)c1=O
Ki [3]: > 1000 nM
Ki [5]: > 1000 nM

SMILES: COc1cc(OCC(=O)O)ccc1-c1cc2c([nH]1)c(=O)n(C)c(=O)n2C
inhibition [1]: 1%
inhibition [2]: 3%
Ki [5]: 1550 nM

SMILES: CCCn1c(=O)c2[nH]c(-c3ccc(OCC(=O)NCc4ccc(Cl)cc4)cc3)cc2n(C)c1=O
inhibition [1]: 20%
inhibition [2]: 76%
inhibition [4]: 33%
Ki [5]: 20.4 nM

SMILES: CCCn1c(=O)c2[nH]c(-c3ccc(OCC(=O)Nc4ccc(C(C)=O)cc4)cc3)cc2n(CCC)c1=O
inhibition [1]: 15%
inhibition [2]: 62%
inhibition [4]: 24%
Ki [5]: 20 nM

SMILES: CCCn1c(=O)c2[nH]c(-c3cc(OCC(=O)c4ccc(Br)cc4)nn3C)nc2n(CCC)c1=O
Ki [3]: 25.1 nM
Ki [5]: > 1000 nM

SMILES: COc1cc(-c2cc3c([nH]2)c(=O)n(C)c(=O)n3C)ccc1OCC(=O)O
inhibition [1]: 5%
inhibition [2]: 15%
Ki [5]: 269 nM

SMILES: CCCn1c(=O)c2[nH]c(-c3ccc(OCC(=O)O)cc3)c(Br)c2n(CCC)c1=O
inhibition [1]: 11%
inhibition [2]: 48%
Ki [3]: 490 nM
Ki [5]: 79.4 nM

SMILES: Cn1c(=O)c2[nH]c(-c3ccc(OCC(=O)Nc4nc5ccccc5[nH]4)cc3)cc2n(C)c1=O
inhibition [1]: 34%
inhibition [2]: 80%
inhibition [4]: 24%
Ki [5]: 20 nM

Continued, values first:

inhibition [1]: 65%
inhibition [2]: 83%
Ki [3]: 26.3 nM
inhibition [4]: 30%
Ki [5]: 17 nM
SMILES: CCCn1c(=O)c2[nH]c(-c3ccc(OCC(=O)n4ccc(N)n4)cc3)cc2n(CCC)c1=O

inhibition [1]: 32%
inhibition [2]: 35%
Ki [3]: 204 nM
inhibition [4]: 10%
Ki [5]: 166 nM
SMILES: Cn1c(=O)c2[nH]c(-c3cccc(OCC(=O)Nc4ccccc4)c3)cc2n(C)c1=O

inhibition [1]: 29%
inhibition [2]: 85%
Ki [3]: 275 nM
inhibition [4]: 40%
Ki [5]: 12.6 nM
SMILES: CCCn1c(=O)c2[nH]c(-c3ccc(OCC(=O)Nc4ccc(C)cn4)cc3)cc2n(CCC)c1=O

inhibition [1]: 36%
inhibition [2]: 91%
inhibition [4]: 65%
Ki [5]: 3.55 nM
SMILES: CC(=O)c1ccc(NC(=O)COc2ccc(-c3cc4c([nH]3)c(=O)n(C)c(=O)n4C)cc2)cc1

Ki [3]: 93.3 nM
Ki [5]: > 1000 nM
SMILES: CCCn1c(=O)c2nc(-c3cc(OCC(=O)c4ccc(Br)cc4)n(C)n3)[nH]c2n(CCC)c1=O

inhibition [1]: 11%
inhibition [2]: 10%
Ki [5]: 2190 nM
SMILES: CCOC(=O)COc1ccc(-c2cc3c([nH]2)c(=O)n(C)c(=O)n3C)c(OC)c1

inhibition [1]: 44%
inhibition [2]: 81%
inhibition [4]: 27%
Ki [5]: 14.1 nM
SMILES: CCCn1c(=O)c2[nH]c(-c3ccc(OCC(=O)Nc4ccc(C)cc4)cc3)cc2n(CCC)c1=O

Ki [3]: 123 nM
Ki [5]: 15.8 nM
SMILES: CCCn1c(=O)c2[nH]c(-c3ccc(OCC(=O)O)cc3)cc2n(CCC)c1=O

Ki [3]: 186 nM
Ki [5]: > 1000 nM
SMILES: CCCn1c(=O)c2nc(-c3cc(OCC(=O)c4ccc(F)cc4)n(C)n3)[nH]c2n(CCC)c1=O
